Results: US8501946B2 (Glaxo Group Limited, priority 2009, dated 2013)

What follows are compounds tested against T1, human recombinant P2X7 receptors (Homo sapiens, UniProt Q99572) (assay: Ethidium Accumulation Assay 1 (HEK293 cells, ATP-induced ethidium uptake)). Conditions: HEK293 cells expressing human P2X7; 1 mM ATP; sometimes mean of more than one measurement; read-out: Assay 1 (antagonist pIC50 for blocking ATP responses) (converted).
T1 construct: expressed in transfected cells
T1 sequence (Q99572 1-595): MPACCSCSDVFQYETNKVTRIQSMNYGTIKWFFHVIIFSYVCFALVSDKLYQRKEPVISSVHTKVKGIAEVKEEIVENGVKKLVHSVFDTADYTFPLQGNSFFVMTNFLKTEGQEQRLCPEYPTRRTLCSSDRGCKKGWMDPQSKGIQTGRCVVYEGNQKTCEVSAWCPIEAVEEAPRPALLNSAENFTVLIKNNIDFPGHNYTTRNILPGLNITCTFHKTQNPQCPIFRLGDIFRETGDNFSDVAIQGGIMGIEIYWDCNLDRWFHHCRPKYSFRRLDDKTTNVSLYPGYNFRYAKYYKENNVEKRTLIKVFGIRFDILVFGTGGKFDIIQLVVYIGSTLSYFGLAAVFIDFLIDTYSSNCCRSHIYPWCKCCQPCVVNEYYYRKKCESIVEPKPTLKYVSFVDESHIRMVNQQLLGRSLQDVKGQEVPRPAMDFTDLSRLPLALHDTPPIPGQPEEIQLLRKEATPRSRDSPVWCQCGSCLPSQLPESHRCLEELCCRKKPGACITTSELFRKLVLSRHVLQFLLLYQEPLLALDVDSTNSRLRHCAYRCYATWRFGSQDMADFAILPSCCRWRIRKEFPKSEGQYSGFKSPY
Format: cell-based

IC50 [nM]	SMILES
< 10	O=C(c1ccc(F)cc1Cl)N1CCn2c(nnc2-c2cnccn2)C1 [Example 85, 7-[(2-chloro-4-fluorophenyl)carbonyl]-3-(2-pyrazinyl)-5,6,7,8-tetrahydro[1,2,4]triazolo[4,3-a]pyrazine]
< 100	O=C(c1ccc(Cl)cc1Cl)N1CCn2c(nnc2-c2ccc(F)cc2F)C1 [Example 101, 7-[(2,4-dichlorophenyl)carbonyl]-3-(2,4-difluorophenyl)-5,6,7,8-tetrahydro[1,2,4]triazolo [4,3-a]pyrazine]
< 100	O=C(c1ccc(Cl)cc1Cl)N1CCn2c(nnc2-c2ncccc2F)C1 [Example 93]
< 501	O=C(c1ccc(Cl)cc1Cl)N1CCn2c(Br)nnc2C1 [Example 7, 3-bromo-7-[(2,4-dichlorophenyl)carbonyl]-5,6,7,8-tetrahydro[1,2,4]triazolo [4,3-a]pyrazine]
< 501	Cc1nc(-c2nnc3n2CCN(C(=O)c2ccc(F)cc2Cl)C3)cs1 [Example 136, 7-[(2-chloro-4-fluorophenyl)carbonyl]-3-(2-methyl-1,3-thiazol-4-yl)-5,6,7,8-tetrahydro[1,2,4]triazolo[4,3-a]pyrazine]
< 100	Cn1ccc(-c2nnc3n2CCN(C(=O)c2ccc(F)cc2Cl)C3)n1 [Example 72, 7-[(2-chloro-4-fluorophenyl)carbonyl]-3-(1-methyl-1H-pyrazol-3-yl)-5,6,7,8-tetrahydro[1,2,4]triazolo [4,3-a]pyrazine]
< 100	COc1cccc(-c2nnc3n2CCN(C(=O)c2ccc(F)cc2Cl)C3)c1 [Example 125, 7-[(2-chloro-4-fluorophenyl)carbonyl]-3-[3-(methyloxy)phenyl]-5,6,7,8-tetrahydro[1,2,4]triazolo[4,3-a]pyrazine]
< 10	O=C(c1ccc(Cl)cc1Cl)N1CCn2c(nnc2-c2cnccn2)C1 [Example 92, 7-[(2,4-dichlorophenyl)carbonyl]-3-(2-pyrazinyl)-5,6,7,8-tetrahydro[1,2,4]triazolo[4,3-a]pyrazine]
< 10	O=C(c1ccc(F)cc1Cl)N1CCn2c(nnc2-c2ccccn2)C1 [Example 37, 7-[(2-chloro-4-fluorophenyl)carbonyl]-3-(2-pyridinyl)-5,6,7,8-tetrahydro[1,2,4]triazolo [4,3-a]pyrazine]
< 501	COc1ccccc1-c1nnc2n1CCN(C(=O)c1ccc(F)cc1Cl)C2 [Example 127, 7-[(2-chloro-4-fluorophenyl)carbonyl]-3-[2-(methyloxy)phenyl]-5,6,7,8-tetrahydro[1,2,4]triazolo[4,3-a]pyrazine]
< 100	Cc1ncccc1-c1nnc2n1CCN(C(=O)c1cccc(Cl)c1Cl)C2 [Example 73, 7-[(2,3-dichlorophenyl)carbonyl]-3-(2-methyl-3-pyridinyl)-5,6,7,8-tetrahydro[1,2,4]triazolo [4,3-a]pyrazine]
< 100	O=C(c1ccc(Cl)cc1Cl)N1CCn2c(nnc2-c2ccc(F)cn2)C1 [Example 95, 7-[(2,4-dichlorophenyl)carbonyl]-3-(5-fluoro-2-pyridinyl)-5,6,7,8-tetrahydro[1,2,4]triazolo [4,3-a]pyrazine]
< 100	O=C(c1ccc(F)cc1Cl)N1CCn2c(nnc2-c2cccc(Cl)c2Cl)C1 [Example 130, 7-[(2-chloro-4-fluorophenyl)carbonyl]-3-(2,3-dichlorophenyl)-5,6,7,8-tetrahydro[1,2,4]triazolo[4,3-a]pyrazine]
< 10	O=C(c1ccc(F)cc1Cl)N1CCn2c(nnc2-c2ncccn2)C1 [Example 47, 7-[(2-chloro-4-fluorophenyl)carbonyl]-3-(2-pyrimidinyl)-5,6,7,8-tetrahydro[1,2,4]triazolo [4,3-a]pyrazine]
< 100	O=C(c1ccc(Cl)cc1Cl)N1CCn2c(nnc2-c2ccc(F)cc2)C1 [Example 100, 7-[(2,4-dichlorophenyl)carbonyl]-3-(4-fluorophenyl)-5,6,7,8-tetrahydro[1,2,4]triazolo [4,3-a]pyrazine]

More lines, now with the values behind:

SMILES	IC50 [nM]
O=C(c1cccc(Cl)c1Cl)N1CCn2c(Br)nnc2C1 [Example 6, 3-bromo-7-[(2,3-dichlorophenyl)carbonyl]-5,6,7,8-tetrahydro[1,2,4]triazolo [4,3-a]pyrazine]	< 100
O=C(c1cccc(C(F)(F)F)c1Cl)N1CCn2c(nnc2C2CCCC2)C1 [Example 139, 7-{[2-chloro-3-(trifluoromethyl)phenyl]carbonyl}-3-cyclopentyl-5,6,7,8-tetrahydro[1,2,4]triazolo[4,3-a]pyrazine]	< 100
O=C(c1cccc(C(F)(F)F)c1Cl)N1CCn2c(nnc2-c2ccccc2O)C1 [Example 138, 2-(7-{[2-chloro-3-(trifluoromethyl)phenyl]carbonyl}-5,6,7,8-tetrahydro[1,2,4]triazolo[4,3-a]pyrazin-3-yl)phenol]	< 10
Cc1cccc(-c2nnc3n2CCN(C(=O)c2cccc(Cl)c2Cl)C3)n1 [Example 69, 7-[(2,3-dichlorophenyl)carbonyl]-3-(6-methyl-2-pyridinyl)-5,6,7,8-tetrahydro[1,2,4]triazolo [4,3-a]pyrazine]	< 10
O=C(c1cccc(C(F)(F)F)c1Cl)N1CCn2c(nnc2N2CCCC2)C1 [Example 19, 7-{[2-chloro-3-(trifluoromethyl)phenyl]carbonyl}-3-(1-pyrrolidinyl)-5,6,7,8-tetrahydro[1,2,4]triazolo [4,3-a]pyrazine]	< 100
O=C(c1ccccc1Cl)N1CCn2c(nnc2-c2ccco2)C1 [Example 117, 7-[(2-chlorophenyl)carbonyl]-3-(2-furanyl)-5,6,7,8-tetrahydro[1,2,4]triazolo[4,3-a]pyrazine]	< 10
COc1nnc2n1CCN(C(=O)c1cccc(C(F)(F)F)c1Cl)C2 [Example 17, 7-{[2-Chloro-3-(trifluoromethyl)phenyl]carbonyl}-3-(methyloxy)-5,6,7,8-tetrahydro[1,2,4]triazolo[4,3-a]pyrazine]	< 100
O=C(c1cccc(Cl)c1Cl)N1CCn2c(nnc2-c2ccc(F)cc2)C1 [Example 99, 7-[(2,3-dichlorophenyl)carbonyl]-3-(4-fluorophenyl)-5,6,7,8-tetrahydro[1,2,4]triazolo [4,3-a]pyrazine]	< 10
O=C(c1cccc(Cl)c1)N1CCn2c(nnc2-c2ccccn2)C1 [Example 80, 7-[(3-chlorophenyl)carbonyl]-3-(2-pyridinyl)-5,6,7,8-tetrahydro[1,2,4]triazolo [4,3-a]pyrazine]	< 100
Cc1cccc(-c2nnc3n2CCN(C(=O)c2cccc(C(F)(F)F)c2Cl)C3)n1 [Example 26, 7-{[2-chloro-3-(trifluoromethyl)phenyl]carbonyl}-3-(6-methyl-2-pyridinyl)-5,6,7,8-tetrahydro[1,2,4]triazolo [4,3-a]pyrazine]	< 10
O=C(c1cccc(Cl)c1Cl)N1CCn2c(nnc2-c2cscn2)C1 [Example 67, 7-[(2,3-dichlorophenyl)carbonyl]-3-(1,3-thiazol-4-yl)-5,6,7,8-tetrahydro[1,2,4]triazolo[4,3-a]pyrazine]	< 10
O=C(c1cccc(C(F)(F)F)c1Cl)N1CCn2c(nnc2-c2ccc(F)cc2F)C1 [Example 24, 7-{[2-Chloro-3-(trifluoromethyl)phenyl]carbonyl}-3-(2,4-difluorophenyl)-5,6,7,8-tetrahydro[1,2,4]triazolo[4,3-a]pyrazine]	< 100
O=C(c1ccc(Cl)c(Cl)c1)N1CCn2c(nnc2-c2cnccn2)C1 [Example 115, 7-[(3,4-dichlorophenyl)carbonyl]-3-(2-pyrazinyl)-5,6,7,8-tetrahydro[1,2,4]triazolo[4,3-a]pyrazine]	< 100
O=C(c1cccc(C(F)(F)F)c1Cl)N1CCn2c(nnc2C2CCCCC2)C1 [Example 135, 7-{[2-chloro-3-(trifluoromethyl)phenyl]carbonyl}-3-cyclohexyl-5,6,7,8-tetrahydro[1,2,4]triazolo[4,3-a]pyrazine]	< 100
Cc1ncccc1-c1nnc2n1CCN(C(=O)c1cccc(C(F)(F)F)c1Cl)C2 [Example 65, 7-{[2-chloro-3-(trifluoromethyl)phenyl]carbonyl}-3-(2-methyl-3-pyridinyl)-5,6,7,8-tetrahydro[1,2,4]triazolo [4,3-a]pyrazine]	< 100
O=C(c1ccc(F)c(C(F)(F)F)c1)N1CCn2c(nnc2-c2cnccn2)C1 [Example 108, 7-{[4-fluoro-3-(trifluoromethyl)phenyl]carbonyl}-3-(2-pyrazinyl)-5,6,7,8-tetrahydro[1,2,4]triazolo [4,3-a]pyrazine]	< 100
O=C(c1cccc(C(F)(F)F)c1Cl)N1CCn2c(Br)nnc2C1 [Example 1, 3-Bromo-7-{[2-chloro-3-(trifluoromethyl)phenyl]carbonyl}-5,6,7,8-tetrahydro[1,2,4]triazolo[4,3-a]pyrazine]	< 10
Cn1ccc(-c2nnc3n2CCN(C(=O)c2cccc(C(F)(F)F)c2Cl)C3)n1 [Example 27, 7-{[2-chloro-3-(trifluoromethyl)phenyl]carbonyl}-3-(1-methyl-1H-pyrazol-3-yl)-5,6,7,8-tetrahydro[1,2,4]triazolo [4,3-a]pyrazine]	< 10
O=C(c1ccccc1Cl)N1CCn2c(nnc2-c2cscn2)C1 [Example 103, 7-[(2-chlorophenyl)carbonyl]-3-(1,3-thiazol-4-yl)-5,6,7,8-tetrahydro[1,2,4]triazolo [4,3-a]pyrazine]	< 10
